pIC50: −log10 of the molar value.
Molecular target: T1, NOX (Homo sapiens, UniProt P04839)
T1 construct: HL60 differentiation to the neutrophil phenotype was triggered by adding Me2SO; endogenous in cells; host or cells: HL-60 cells differentiated with DMSO (1.25% v/v, 6 days) to the neutrophil phenotype
T1 sequence (P04839 1-570): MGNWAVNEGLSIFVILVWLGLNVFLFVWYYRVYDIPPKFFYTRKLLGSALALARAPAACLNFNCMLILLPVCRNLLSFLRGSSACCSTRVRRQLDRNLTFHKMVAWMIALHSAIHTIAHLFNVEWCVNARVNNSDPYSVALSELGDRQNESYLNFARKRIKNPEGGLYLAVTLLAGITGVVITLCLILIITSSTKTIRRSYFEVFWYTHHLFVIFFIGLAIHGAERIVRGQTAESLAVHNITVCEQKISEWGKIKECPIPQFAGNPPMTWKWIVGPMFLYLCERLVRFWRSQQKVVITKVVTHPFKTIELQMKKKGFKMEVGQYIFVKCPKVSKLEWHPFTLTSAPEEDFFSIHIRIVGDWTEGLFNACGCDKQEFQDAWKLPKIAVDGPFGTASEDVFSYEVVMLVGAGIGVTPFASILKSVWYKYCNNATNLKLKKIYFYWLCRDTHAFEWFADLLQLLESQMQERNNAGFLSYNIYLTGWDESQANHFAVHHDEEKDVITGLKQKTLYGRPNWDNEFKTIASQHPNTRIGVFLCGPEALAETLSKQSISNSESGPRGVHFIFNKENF
T1 sequence (P13498 1-195 partner): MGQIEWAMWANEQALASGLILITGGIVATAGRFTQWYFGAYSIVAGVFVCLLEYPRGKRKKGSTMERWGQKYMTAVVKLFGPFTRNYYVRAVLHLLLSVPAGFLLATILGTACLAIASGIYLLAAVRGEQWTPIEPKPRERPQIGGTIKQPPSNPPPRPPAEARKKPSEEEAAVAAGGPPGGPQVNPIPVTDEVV
Test: Amplex Red measurement of extracellular hydrogen peroxide (NOX activity) using DMSO-differentiated HL60 cells
Type: cell-based
Details: DMSO-differentiated HL60 cells; for Inhibition (%) of NOX activity: test concentration not given
Procedure: The activity of the compounds according to the invention may be tested for their activity in the inhibition or reduction of formation of reactive oxygen species (ROS) from oxygen in cells. The activity of the compounds is tested in the following cell cultures by different techniques such as nitroblue tetrazolium, Amplex Red, Chemiluminescence (Luminol) and 2′,7′-dichlorodihydrofluorescein diacetate (H2DCF-DA) according to the protocols detailed below.
Human acute myeloid leukemia cell line HL-60 was cultured in RPMI 1640 (Invitrogen) supplemented with 10% heat-inactivated calf serum, 2 mM glutamine, 100 U/mL penicillin (Sigma), and 100 μg streptomycin (Sigma) at 37° C. under a humidified atmosphere of 5% CO2. HL60 differentiation to the neutrophil phenotype was triggered by adding Me2SO (final concentration 1.25% v/v for 6 days) to the culture medium.
Extracellular hydrogen peroxide was measured using Amplex UltraRed (Molecular Probes). Cells were trypsinized (1× Trypsin-EDTA), collected by centrifugation, and resuspended in HBSS supplemented with 1% glucose. Cells were seeded into black 96-well plates at a density of 50,000 cells in 200 μl testing buffer (HBSS 1% glucose containing 0.005 U/mL horseradish peroxidase (Roche) and 50 μM Amplex Red in the presence or absence of compounds according to the invention. As a control, DPI was included at a final concentration of 10 μM The plates were placed in the fluorescent Optima Fluorescent plate reader and kept at 37° C. during 20 min. Fluorescence was measured for […] with excitation and emission wavelengths of 544 nm and 590 nm respectively. NOX activities were expressed as % of the activity in control cells. Residual activity of DPI-treated cells was usually <10%.
The Table 2 below summarizes the percentage of inhibition of NOX activity as measured by Amplex Red using DMSO-differentiated HL60 cells as described above:
The Table 3 below summarizes the IC50 of NOX activity as measured by Amplex Red using DMSO-differentiated HL60 cells as described above: […]

pIC50	Inhibition (%) of NOX activity [%]	SMILES
	90	Cn1[nH]c2cc(=O)n(CC3CNC(=O)C3)c(-c3ccc(Cl)cc3)c2c1=O (stereo not shown) [Compound 100, 4-(4-chlorophenyl)-2-methyl-5-[(5-oxopyrrolidin-3-yl)methyl]-1H-pyrazolo[4,3-c] pyridine-3,6(2H,5H)-dione]
	89	Cn1[nH]c2cc(=O)n(CC3CN(Cc4ccccc4)CCO3)c(-c3ccc(Cl)cc3)c2c1=O (stereo not shown) [Compound 97, 5-[(4-benzylmorpholin-2-yl)methyl]-4-(4-chlorophenyl)-2-methyl-1H-pyrazolo[4,3-c] pyridine-3,6(2H,5H)-dione]
> 5.30	72	COCCn1[nH]c2cc(=O)n(CC(=O)N3CCN(Cc4ccccc4)CC3)c(C)c2c1=O [Compound 35, 5-[2-(4-benzylpiperazin-1-yl)-2-oxoethyl]-2-(2-methoxyethyl)-4-methyl-1H-pyrazolo [4,3-c]pyridine-3,6(2H,5H)-dione]
> 5.30	48	Cc1c2c(=O)n(C)[nH]c2cc(=O)n1C [Compound 5, 2,4,5-Trimethyl-1H-Pyrazolo[4,3-c]Pyridine-3,6(2H,5H)-Dione]
> 5.30	77	Cc1c2c(=O)n(CCN3CCOCC3)[nH]c2cc(=O)n1Cc1ccc(Cl)cc1 [Compound 10, 5-(4-Chlorobenzyl)-4-Methyl-2-(2-Morpholin-4-Ylethyl)-1H-Pyrazolo[4,3-c]Pyridine-3,6(2H,5H)-Dione]
> 5.30	89	COc1cccc(Cn2c(C)c3c(=O)n(CCN4CCOCC4)[nH]c3cc2=O)c1 [Compound 83, 5-(3-methoxybenzyl)-4-methyl-2-(2-morpholin-4-ylethyl)-1H-pyrazolo[4,3-c] pyridine-3,6(2H,5H)-dione]
> 5.30	63	Cc1c2c(=O)n(Cc3ccccc3)[nH]c2cc(=O)n1-c1cccc(OC(F)(F)F)c1 [Compound 3, 2-Benzyl-4-Methyl-5-[3-(Trifluoromethoxy)Phenyl]-1H-Pyrazolo[4,3-c]Pyridine-3,6(2H,5H)-Dione]
> 5.30	65	Cc1c2c(=O)n(C)[nH]c2cc(=O)n1Cc1ccccn1 [Compound 4, 2,4-Dimethyl-5-(Pyridin-2-Ylmethyl)-1H-Pyrazolo[4,3-c]Pyridine-3,6(2H,5H)-Dione]
> 5.30	87	Cn1c(COc2ccc(F)cc2)c2c(=O)n(CCN3CCOCC3)[nH]c2cc1=O [Compound 86, 4-[(4-fluorophenoxy)methyl]-5-methyl-2-(2-morpholin-4-ylethyl)-1H-pyrazolo[4,3-c] pyridine-3,6(2H,5H)-dione]
> 5.30	73	COCCn1[nH]c2cc(=O)n(-c3cccc(NC(C)=O)c3)c(C)c2c1=O [Compound 19, N-{3-[2-(2-methoxyethyl)-4-methyl-3,6-dioxo-1,2,3,6-tetrahydro-5H-pyrazolo[4,3-c]pyridin-5-yl]phenyl} acetamide]
> 5.30	90	COCCn1[nH]c2cc(=O)n(CCOC)c(CCCOc3ccccc3)c2c1=O [Compound 94, 2,5-bis(2-methoxyethyl)-4-(3-phenoxypropyl)-1H-pyrazolo[4,3-c]pyridine-3,6 (2H,5H)-dione]
> 5.30	74	Cc1c2c(=O)n(C)[nH]c2cc(=O)n1Cc1ccco1 [Compound 6, 5-(Furan-2-Ylmethyl)-2,4-Dimethyl-1H-Pyrazolo[4,3-c]Pyridine-3,6(2H,5H)-Dione]

Further lines, the compound ahead of its results:

SMILES	pIC50	Inhibition (%) of NOX activity [%]
Cc1c2c(=O)n(CC(C)C)[nH]c2cc(=O)n1Cc1cccnc1 [Compound 44, 4-methyl-2-(2-methylpropyl)-5-(pyridin-3-ylmethyl)-1H-pyrazolo[4,3-c]pyridine-3,6 (2H,5H)-dione]	> 5.30	78
COc1cccc(Cc2c3c(=O)n(Cc4ccccc4)[nH]c3cc(=O)n2Cc2ccccn2)c1 [Compound 21, 2-benzyl-4-(3-methoxybenzyl)-5-(pyridin-2-ylmethyl)-1H-pyrazolo[4,3-c] pyridine-3,6(2H,5H)-dione]	> 5.30	74
CC(=O)N1CCC(Cn2c(-c3ccc(Cl)cc3)c3c(=O)n(C)[nH]c3cc2=O)CC1 [Compound 98]		92
COCCn1c(CCCOc2ccccc2)c2c(=O)n(CCN3CCOCC3)[nH]c2cc1=O [Compound 74, 5-(2-methoxyethyl)-2-(2-morpholin-4-ylethyl)-4-(3-phenoxypropyl)-1H-pyrazolo[4,3-c]pyridine-3,6 (2H,5H)-dione]	> 5.30	95
CCOCCCn1c(COCc2ccccc2)c2c(=O)n(CCN3CCOCC3)[nH]c2cc1=O [Compound 89, 4-[(benzyloxy)methyl]-5-(3-ethoxypropyl)-2-(2-morpholin-4-ylethyl)-1H-pyrazolo[4,3-c]pyridine-3,6 (2H,5H)-dione]	> 5.30	86
Cc1c2c(=O)n(CC(C)C)[nH]c2cc(=O)n1C1CCc2ccccc21 (stereo not shown) [Compound 48, 5-(2,3-dihydro-1H-inden-1-yl)-4-methyl-2-(2-methylpropyl)-1H-pyrazolo[4,3-c] pyridine-3,6(2H,5H)-dione]	> 5.30	91
COCCn1[nH]c2cc(=O)n(CC(=O)N3CCOCC3)c(C)c2c1=O [Compound 20]	> 5.30	75
Cc1c2c(=O)n(Cc3ccccc3)[nH]c2cc(=O)n1Cc1ccccn1 [Compound 1, 2-Benzyl-4-Methyl-5-(Pyridin-2-Ylmethyl)-1H-Pyrazolo[4,3-c]Pyridine-3,6(2H,5H)-Dione]	> 5.30	67
Cc1c2c(=O)n(Cc3ccc(Cl)cc3)[nH]c2cc(=O)n1Cc1ccccn1 [Compound 2, 2-(4-Chlorobenzyl)-4-Methyl-5-(Pyridin-2-Ylmethyl)-1H-Pyrazolo[4,3-c]Pyridine-3,6(2H,5H)-Dione]	> 5.30	61
COCCn1[nH]c2cc(=O)n(Cc3ccccc3CN3CCOCC3)c(C)c2c1=O [Compound 18, 2-(2-methoxyethyl)-4-methyl-5-[2-(morpholin-4ylmethyl)benzyl]-1H-pyrazolo[4,3-c]pyridine-3,6(2H,5H)-dione]	> 5.30	75
COCCn1[nH]c2cc(=O)n(C)c(-c3ccc(Cl)cc3)c2c1=O [Compound 77, 4-(4-chlorophenyl)-2-(2-methoxyethyl)-5-methyl-1H-pyrazolo[4,3-c]pyridine-3,6 (2H,5H)-dione]	> 5.30	90
Cc1c2c(=O)n(CCc3ccccc3)[nH]c2cc(=O)n1Cc1ccccc1CN1CCOCC1 [Compound 30, 4-methyl-5-[2-(morpholin-4-ylmethyl)benzyl]-2-(2-phenylethyl)-1H-pyrazolo[4,3-c]pyridine-3,6(2H,5H)-dione]	> 5.30	77
CCCCc1c2c(=O)n(C)[nH]c2cc(=O)n1Cc1ccc(Cl)cc1 [Compound 8, 4-Butyl-5-(4-Chlorobenzyl)-2-Methyl-1H-Pyrazolo[4,3-c]Pyridine-3,6(2H,5H)-Dione]	> 5.30	79
O=c1c2c(COc3ccc(F)cc3)n(Cc3ccc(Cl)cc3)c(=O)cc2[nH]n1CCN1CCOCC1 [Compound 51, 5-(4-chlorobenzyl)-4-[(4-fluorophenoxy)methyl]-2-(2-morpholin-4-ylethyl)-1H-pyrazolo[4,3-c]pyridine-3,6 (2H,5H)-dione]	> 5.30	76
